Source: patent US20210127719A1, “AROMATIC MIXTURE FOR REDUCING THE ODOR OR TASTE OF BIOGENIC AMINES” (SYMRISE AG, priority 2016, published 2021)

Key:
[1] = Fish sauce triangle test with odor description
Description: The panelists received the following instruction: Please smell the three samples and mark the sensorially deviating samples with a cross. In any case, one of the samples must be ticked, even if no difference can be noted.

[2] = Panel rating of odor attributes of soy sauce containing biogenic amines, with and without added compound; settings: panelists n=6-8, scale 0-10, versus product alone
Description: The panelists (n=6-8) rate the attributes animalistic—fishy, metallic as well as woody, sweet, flowery and terpenic, herbal on an unstructured scale from 0 (no taste)—10 (strong taste). Thereby, the order is arbitrary and not known by the panelists beforehand.

[3] = dosage of the compound 0.1 mg/kg
[4] = dosage of the compound 0.5 mg/kg

In the case of `CCc1ncc(C)nc1CC` [2,3-Diethyl-5-methyl-pyrazine, 2,3-diethyl-5-methyl-pyrazine], the Odor description [1, 3] was “metallic, dusty,”.
For `CC1CCc2nccnc21` (centres unmarked) [5-Methyl-6,7-dihydrocyclopentapyrazine, 5-methyl-6,7-dihydro-5H-cyclopenta[b]pyrazine], the “Odor description (indication of relative change in percent) Animalistic-fishy, metallic” value [2, 4] was −7.4%, the “Odor description (indication of relative change in percent) Terpenig, herbal” value [2, 4] was −5.2% and the “Odor description (indication of relative change in percent) Woody, sweet, flowery” value [2, 4] was −10.0%. The Odor description ([1]; dosage of the compound 0.05 mg/kg) was “not fishy, less silage notes,”.
For `CC(=O)/C=C/C1C(C)=CCCC1(C)C` (stereo not drawn) [Alpha ionone, (E)-4-(2,6,6-trimethylcyclohex-2-en-1-yl)but-3-en-2-one], the “Odor description (indication of relative change in percent) Animalistic-fishy, metallic” value ([2]; dosage of the compound 1 mg/kg) was −20.5%, the “Odor description (indication of relative change in percent) Terpenig, herbal” value ([2]; dosage of the compound 1 mg/kg) was −7.6% and the “Odor description (indication of relative change in percent) Woody, sweet, flowery” value ([2]; dosage of the compound 1 mg/kg) was −4.4%. The Odor description [1, 3] was “bready, earthy,”.
In the case of `CC1=CCCC(C)(C)C1/C=C/C(C)O` (stereo not drawn) [Alpha-Ionol, (E)-4-(2,6,6-trimethylcyclohex-2-en-1-yl)but-3-en-2-ol], the Odor description [1, 4] was “bready, earthy, rounded”.
With `C/C=C/C(=O)C1C(C)=CCCC1(C)C` (stereo not drawn) [Alpha-damascone, (E)-1-(2,6,6-trimethylcyclohex-2-en-1-yl)but-2-en-1-one] the Odor description ([1]; dosage of the compound 0.2 mg/kg) was “cocoa note, sweet,”.
In the case of `CC(=O)/C=C/C12OC1(C)CCCC2(C)C` (stereo not drawn) [Beta epoxyionone, (E)-4-(1,5,5-trimethyl-7-oxabicyclo[4.1.0]heptan-6-yl)but-3-en-2-one], the “Odor description (indication of relative change in percent) Animalistic-fishy, metallic” value [2, 4] was −5.4%, the “Odor description (indication of relative change in percent) Terpenig, herbal” value [2, 4] was 21.1% and the “Odor description (indication of relative change in percent) Woody, sweet, flowery” value [2, 4] was 22.8%.
For `CC(=O)/C=C/C1=C(C)CCCC1(C)C` [Beta ionone, (E)-4-(2,6,6-trimethylcyclohex-1-en-1-yl)but-3-en-2-one], the “Odor description (indication of relative change in percent) Animalistic-fishy, metallic” value ([2]; dosage of the compound 2 mg/kg) was 2.4%, the “Odor description (indication of relative change in percent) Terpenig, herbal” value ([2]; dosage of the compound 2 mg/kg) was −28.9% and the “Odor description (indication of relative change in percent) Woody, sweet, flowery” value ([2]; dosage of the compound 2 mg/kg) was 51.9%. For the same compound, the Odor description [1, 4] was “less silage notes,”.
For `CC1=CC=C2C(C)(C)CCCC2(C)O1` (centres unmarked) [Cycloionone, 2,5,5,8a-tetramethyl-7,8-dihydro-6H-chromene], the “Odor description (indication of relative change in percent) Animalistic-fishy, metallic” value [2, 4] was 2.3%, the “Odor description (indication of relative change in percent) Terpenig, herbal” value [2, 4] was 19.6% and the “Odor description (indication of relative change in percent) Woody, sweet, flowery” value [2, 4] was 33.8%.
With `CC(=O)CCC1=C(C)CCCC1(C)C` [Dihydroionone] the “Odor description (indication of relative change in percent) Animalistic-fishy, metallic” value [2, 4] was 8.9%, the “Odor description (indication of relative change in percent) Terpenig, herbal” value [2, 4] was −8.3% and the “Odor description (indication of relative change in percent) Woody, sweet, flowery” value [2, 4] was 9.5%.
In the case of `CC1=CC(C)C(C=O)C(C)C1` (centres unmarked) [Isocyclocitral], the Odor description ([1]; dosage of the compound 1 mg/kg) was “bready, rounded,”.
With `CCC(O)CCC1C(C)CCCC1(C)C` (centres unmarked) [Madranol, 1-(2,2,6-trimethylcyclohexyl)pentan-3-ol] the “Odor description (indication of relative change in percent) Animalistic-fishy, metallic” value ([2]; dosage of the compound 1 mg/kg) was −13.9%, the “Odor description (indication of relative change in percent) Terpenig, herbal” value ([2]; dosage of the compound 1 mg/kg) was −6.0% and the “Odor description (indication of relative change in percent) Woody, sweet, flowery” value ([2]; dosage of the compound 1 mg/kg) was 6.6%.
In the case of `C/C=C/C=C1/C(C)=CC(=O)CC1(C)C` [Tabanon, (4E)-4-[(E)-but-2-enylidene]-3,5,5-trimethyl-cyclohex-2-en-1-one], the “Odor description (indication of relative change in percent) Animalistic-fishy, metallic” value ([2]; dosage of the compound 1 mg/kg) was −18.8%, the “Odor description (indication of relative change in percent) Terpenig, herbal” value ([2]; dosage of the compound 1 mg/kg) was −8.2% and the “Odor description (indication of relative change in percent) Woody, sweet, flowery” value ([2]; dosage of the compound 1 mg/kg) was 13.7%. For the same compound, the Odor description [1, 4] was “bready, less”.
In the case of `CCCC(O)CCC1C(C)CCCC1(C)C` (centres unmarked) [Timberol, 1-(2,2,6-trimethylcyclohexyl)hexan-3-ol], the “Odor description (indication of relative change in percent) Animalistic-fishy, metallic” value ([2]; dosage of the compound 1 mg/kg) was −26.5%, the “Odor description (indication of relative change in percent) Terpenig, herbal” value ([2]; dosage of the compound 1 mg/kg) was −3.8% and the “Odor description (indication of relative change in percent) Woody, sweet, flowery” value ([2]; dosage of the compound 1 mg/kg) was 27.9%.
